Measured values published in US4540517A, “Antibiotic TAN-420” (Takeda Chemical Industries, Ltd., priority 1982, dated 1985).
Values after ≈ are worked out from the molar mass of the structure shown. Like-named read-outs stand apart in the source and are kept apart here.

Columns and labels:
[1] = test system: gram-positive bacteria, fungi and protozoae; assay: Antimicrobial activity (general statement); conditions: considered, relative to TAN-420B
Escherichia coli K12 = assay: Agar dilution assay, antimicrobial activity; format: cell-based
Procedure: (§1) The antimicrobial activity of Antibiotic TAN-420B, C, D and E was assayed by the agar dilution method using Typticase soy agar (Baltimore Biological Laboratories, U.S.A.) as the test medium.

[2] = test system: Pseudomonas aeruginosa IFO 3080; assay: Agar dilution assay, antimicrobial activity; format: cell-based
Procedure: as §1

[3] = test system: Micrococcus flavus IFO 3242; assay: Agar dilution assay, antimicrobial activity; format: cell-based
Procedure: as §1

[4] = test system: Bacillus subtilis PCI 219; assay: Agar dilution assay, antimicrobial activity; format: cell-based
Procedure: as §1

B. megaterium IFO 12108 = assay: Agar dilution assay, antimicrobial activity; format: cell-based; conditions: Priestia megaterium
Procedure: as §1

B. cereus IFO 3514 = assay: Agar dilution assay, antimicrobial activity; format: cell-based; conditions: Bacillus cereus
Procedure: as §1

B. pumilus IFO 3813 = assay: Agar dilution assay, antimicrobial activity; format: cell-based; conditions: Bacillus pumilus
Procedure: as §1

[5] = test system: Staphylococcus aureus FDA 209P; assay: Agar dilution assay, antimicrobial activity; format: cell-based; conditions: FDA209P, read-out: Minimal inhibitory concentration
Procedure: as §1

B. brevis IFO 3331 = assay: Agar dilution assay, antimicrobial activity; format: cell-based; conditions: Brevibacillus brevis
Procedure: as §1

Tetrahymena pyriformis W = assay: Liquid dilution assay of antiprotozoal activity; format: cell-based; conditions: read-out: minimal inhibitory concentration
[6] = Toxicity compared with herbimycin A; conditions: comparison in words
[7] = Acute toxicity (mouse, intraperitoneal); conditions: in vivo, ip
Procedure: As regards the acute toxocity of Antibiotic TAN-420 (mouse, intraperitoneal), the LD50 value of TAN-420C was 200 to 400 mg/kg, that of TAN-420D was 100 mg/kg, and that of TAN-420E was 50 mg/kg. It is therefore, considered that the toxicity of Antibiotic TAN-420 is low.

[8] = known from Journal of Antibiotics 32, 255-261 (1979), Tetrahedron Letters No. 44, 4323-4326 (1979); cited from earlier work
[9] = agar dilution, Escherichia coli K12, read-out: Minimal inhibitory concentration
[10] = IFO3080, agar dilution, Pseudomonas aeruginosa IFO 3080, read-out: Minimal inhibitory concentration
[11] = IFO3242, agar dilution, Micrococcus flavus IFO 3242, read-out: Minimal inhibitory concentration
[12] = PCI219, agar dilution, Bacillus subtilis PCI 219, read-out: Minimal inhibitory concentration
[13] = IFO12108, agar dilution, B. megaterium IFO 12108, read-out: Minimal inhibitory concentration
[14] = IFO3514, agar dilution, B. cereus IFO 3514, read-out: Minimal inhibitory concentration
[15] = IFO3813, agar dilution, B. pumilus IFO 3813, read-out: Minimal inhibitory concentration
[16] = agar dilution, Staphylococcus aureus FDA 209P
[17] = IFO3331, agar dilution, B. brevis IFO 3331, read-out: Minimal inhibitory concentration
[18] = liquid dilution assay, Tetrahymena pyriformis W

Structure (SMILES) | toxicity relative to herbimycin A [6] | MIC (Escherichia coli K12; [9]) [µg/mL] | MIC [2, 10] [µg/mL] | MIC [3, 11] [µg/mL] | MIC [4, 12] [µg/mL] | MIC (B. megaterium IFO 12108; [13]) [µg/mL] | MIC (B. cereus IFO 3514; [14]) [µg/mL] | MIC (B. pumilus IFO 3813; [15]) [µg/mL] | MIC [5, 16] [µg/mL] | MIC (B. brevis IFO 3331; [17]) [µg/mL] | LD50 [7] [mg/kg] | MIC (Tetrahymena pyriformis W; [18]) [µg/mL] | also measured
COC1C=CC=C(C)C(=O)Nc2cc(O)cc(c2O)C(OC)C(C)CC(O)C(O)C(C)C=C(C)C1OC(N)=O (stereo not drawn) [TAN-420A] | – | – | – | – | – | – | – | – | – | – | – | – | antimicrobial activity [1]: of the same order as that of TAN-420B
COC1C=CC=C(C)C(=O)NC2=CC(=O)C=C(C2=O)C(OC)C(C)CC(O)C(O)C(C)C=C(C)C1OC(N)=O (stereo not drawn) [TAN-420B] | – | – | – | – | – | – | – | – | – | – | – | – | MIC (Escherichia coli K12; Escherichia coli, K12, read-out: Minimal inhibitory concentration): > 100 µg/mL; MIC ([2]; Pseudomonas aeruginosa, IFO3080, read-out: Minimal inhibitory concentration): > 100 µg/mL; MIC ([3]; Micrococcus flavus, IFO3242, read-out: Minimal inhibitory concentration): 25 µg/mL (≈ 45.7 µM); MIC ([4]; Bacillus subtilis, PCI219, read-out: Minimal inhibitory concentration): > 100 µg/mL; MIC (B. megaterium IFO 12108; IFO12108, read-out: Minimal inhibitory concentration): 100 µg/mL (≈ 183 µM); MIC (B. cereus IFO 3514; IFO3514, read-out: Minimal inhibitory concentration): 100 µg/mL (≈ 183 µM); MIC (B. pumilus IFO 3813; IFO3813, read-out: Minimal inhibitory concentration): 100 µg/mL (≈ 183 µM); MIC ([5]; Staphylococcus aureus): 100 µg/mL (≈ 183 µM); MIC (B. brevis IFO 3331; IFO3331, read-out: Minimal inhibitory concentration): 50 µg/mL (≈ 91.5 µM); MIC (Tetrahymena pyriformis W; Tetrahymena pyriformis): 40 µg/mL (≈ 73.2 µM)
COC1C=CC=C(C)C(=O)Nc2cc(O)cc(c2O)C(OC)C(C)CC(OC)C(O)C(C)C=C(C)C1OC(N)=O (stereo not drawn) [TAN-420C] | lower than that of herbimycin A | > 100 | > 100 | 25 (≈ 44.4 µM) | > 100 | 100 (≈ 178 µM) | 100 (≈ 178 µM) | 100 (≈ 178 µM) | 100 (≈ 178 µM) | 50 (≈ 88.9 µM) | 200 to 400 | 10 (≈ 17.8 µM) | –
COC1C=CC=C(C)C(=O)NC2=CC(=O)C=C(C2=O)C(OC)C(C)CC(OC)C(O)C(C)C=C(C)C1OC(N)=O (stereo not drawn) [TAN-420D] | lower than that of herbimycin A | > 100 | > 100 | 25 (≈ 44.6 µM) | > 100 | 100 (≈ 178 µM) | 100 (≈ 178 µM) | 100 (≈ 178 µM) | 100 (≈ 178 µM) | 50 (≈ 89.2 µM) | 100 | 4 (≈ 7.13 µM) | –
COC1C=CC=C(C)C(=O)Nc2cc(O)cc(c2O)C(OC)C(C)CC(OC)C(OC)C(C)C=C(C)C1OC(N)=O (stereo not drawn) [TAN-420E] | lower than that of herbimycin A | > 100 | > 100 | 50 (≈ 86.7 µM) | 100 (≈ 173 µM) | 50 (≈ 86.7 µM) | 100 (≈ 173 µM) | 100 (≈ 173 µM) | 100 (≈ 173 µM) | 50 (≈ 86.7 µM) | 50 | 2 (≈ 3.47 µM) | –
COC1C=CC=C(C)C(=O)NC2=CC(=O)C=C(C2=O)C(OC)C(C)CC(OC)C(OC)C(C)C=C(C)C1OC(N)=O (stereo not drawn) [herbimycin A] | – | – | – | – | – | – | – | – | – | – | – | – | herbicidal activity [8]: has herbicidal activity
